Measurements published in patent publication US20260140098A1, “METHOD FOR TREATING PLASMA SAMPLE CONTAINING (7aS,2'S)-2-OXO-CLOPIDOGREL AND METHOD FOR DETERMINING THE SAME” (CHENGDU SHIBEIKANG BIOMEDICAL TECHNOLOGY CO., LTD., priority 2021, published 2026).
Where “and” joins values, the source holds several entries; their conditions need not be identical. Equal entries are not always repeated.

Assay: Stability of (7aS,2′S)-2-oxo-clopidogrel in plasma containing the reducing agent (Example 8)
Type: in vitro ADME, human
Details: plasma with reducing agent; for Measured concentration: single replicates
Procedure: S1. Whole blood treatment: taking 3 ml of human whole blood anticoagulated with EDTA-K2 after oral administration of (7aS,2′S)-2-oxo-clopidogrel, cooling to 4° C. on ice, then adding thereto 60 μl of tris(2-carboxyethyl) phosphine at 100 mg/ml; shaking well and then centrifuging (2-8° C., 3000 rpm for 10 min), and collecting plasma for later use.
S2. Plasma sample pre-treatment: taking 100 μl of the plasma, adding 5 μl of an internal standard working solution and 300 μl of acetonitrile respectively; after vortex mixing, centrifuging at 2-8° C. and 10,000 r/min for 10 min, and collecting the supernatant for later use.
S3. LC-MS/MS analysis: injecting 10 μl of the supernatant prepared from step S2 for determination, where the liquid chromatography conditions are: • the chromatographic column is Kinetex® 1.7 μm C18 100 A 100×2.1 mm; the column temperature is 40° C.; the mobile phase is acetonitrile-0.2% aqueous formic acid solution with a flow rate of 0.2 ml/min; and a gradient elution is carried out as specified in the table below:
ESI ion source, positive ion detection in multiple reaction monitoring mode (MRM); the quantitatively analyzed ions (7aS,2′S)-2-oxo-clopidogrel: m/z 338.100→155.000, IS: m/z 341.100→158.000, a capillary voltage of 4.0 KV, a cone voltage of 25 V, a desolvation gas temperature of 400° C. and a source temperature of 150° C. The optimal collision energy is 20 eV.
Blank plasma was taken and operated according to S1 of Example 1 to obtain a blank plasma containing the reducing agent. Subsequently, a standard series solution of (7aS,2′S)-2-oxo-clopidogrel was added to prepare quality control samples containing (7aS,2′S)-2-oxo-clopidogrel at concentrations of 0.1 and 12 ng/ml. The plasma samples were examined for stability after ice box short-term placement, stability after room temperature short-term placement, stability after freeze-thaw cycle and stability after long-term cryopreservation.
The plasma samples at different placing time points were taken to examine the stability by pre-treating the plasma samples according to the method of S2 of Example 1, followed by LC/MS/MS determination according to the method of S3.

[1] = placing at room temperature for 1 h, theoretical 0.1 ng/mL
[2] = placing at room temperature for 1 h, theoretical 12.0 ng/mL
[3] = placing below −60° C. for 36 days, theoretical 0.1 ng/mL
[4] = placing in ice box for 4 h, theoretical 12.0 ng/mL
[5] = three cycles of freeze-thaw, theoretical 0.1 ng/mL
[6] = three cycles of freeze-thaw, theoretical 12.0 ng/mL

recovery at 1 h, 0.1 ng/mL (human, plasma containing the reducing agent (TCEP), placing at room temperature for 1 h, theoretical 0.1 ng/mL, read-out: Recovery rate): 102% | recovery at 1 h, 12 ng/mL (human, plasma containing the reducing agent (TCEP), placing at room temperature for 1 h, theoretical 12.0 ng/mL, read-out: Recovery rate): 99.4% | recovery at 36 days, 0.1 ng/mL (human, plasma containing the reducing agent (TCEP), placing below −60° C. for 36 days, theoretical 0.1 ng/mL, read-out: Recovery rate): 96.4% | recovery at 36 days, 12 ng/mL (human, plasma containing the reducing agent (TCEP), placing below −60° C. for 36 days, theoretical 12.0 ng/mL, read-out: Recovery rate): 97.7% | recovery at 4 h, 0.1 ng/mL (human, plasma containing the reducing agent (TCEP), placing in ice box for 4 h, theoretical 0.1 ng/mL, read-out: Recovery rate): 100% | recovery at 4 h, 12 ng/mL (human, plasma containing the reducing agent (TCEP), placing in ice box for 4 h, theoretical 12.0 ng/mL, read-out: Recovery rate): 98.5% | recovery at 0.1 ng/mL (human, plasma containing the reducing agent (TCEP), three cycles of freeze-thaw, theoretical 0.1 ng/mL, read-out: Recovery rate): 100% | recovery at 12 ng/mL (human, plasma containing the reducing agent (TCEP), three cycles of freeze-thaw, theoretical 12.0 ng/mL, read-out: Recovery rate): 99.3% | Average measured concentration [1]: 0.1021 ng/mL | Average measured concentration [2]: 11.9269 ng/mL | Average measured concentration [3]: 0.0964 ng/mL | Measured concentration [3]: 0.0980 ng/mL and 0.0940 ng/mL | Measured concentration (placing in ice box for 4 h, theoretical 0.1 ng/mL): 0.1013 ng/mL (2×) and 0.0960 ng/mL | Average measured concentration [4]: 11.8184 ng/mL | Average measured concentration [5]: 0.1003 ng/mL | Average measured concentration [6]: 11.9191 ng/mL
Compound: COC(=O)[C@H](c1ccccc1Cl)N1CC[C@@H]2SC(=O)C=C2C1 [(7aS,2′S)-2-oxo-clopidogrel, methyl(S)-2-(2-chlorophenyl)-2-((S)-2-oxo-2,6,7,7a-tetrahydrothieno[3,2-c]pyridin-5 (4H)-yl)acetate]
Measured concentration [1]: 0.1013 ng/mL and 0.1027 ng/mL and 0.1020 ng/mL and 0.1040 ng/mL and 0.1007 ng/mL | Measured concentration [2]: 11.8349 ng/mL and 11.7245 ng/mL and 11.8592 ng/mL and 12.1616 ng/mL and 12.0541 ng/mL | Measured concentration [4]: 12.0320 ng/mL and 11.7632 ng/mL and 11.6883 ng/mL and 11.8822 ng/mL and 11.7261 ng/mL | Measured concentration [5]: 0.1007 ng/mL (2×) and 0.1013 ng/mL (2×) and 0.0973 ng/mL | Measured concentration [6]: 11.9123 ng/mL and 11.8416 ng/mL and 11.9078 ng/mL and 11.8995 ng/mL and 12.0342 ng/mL
